# Measurements from PubChem BioAssay (NCI).
#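 Five compound concentrations were applied to cells in 96-well plates for 48 hours; endpoints were derived by simple linear interpolation of the resulting dose-response curve. The concentration for full growth arrest is given as TGI.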
# Assays:
# Test in all cases: growth of human tumour cells (NCI), 48 h
# A549 NSCLC = test system: A549 NSCLC
# EKVX NSCLC = test system: EKVX NSCLC
# HS 578T breast = test system: HS 578T breast
# MDA-MB-435 = test system: MDA-MB-435
# NCI-H23 lung = test system: NCI-H23 lung
# OVCAR-4 ovarian = test system: OVCAR-4 ovarian
# SK-OV-3 ovarian = test system: SK-OV-3 ovarian
# SN12C renal = test system: SN12C renal
# T-47D breast = test system: T-47D breast
# HCC-2998 colon = test system: HCC-2998 colon
Compound,TGI (A549 NSCLC) [µM],TGI (EKVX NSCLC) [µM],TGI (HS 578T breast) [µM],TGI (MDA-MB-435) [µM],TGI (NCI-H23 lung) [µM],TGI (OVCAR-4 ovarian) [µM],TGI (SK-OV-3 ovarian) [µM],TGI (SN12C renal) [µM],TGI (T-47D breast) [µM],TGI (HCC-2998 colon) [µM]
CN(C)CC(C)(C)CN1c2ccccc2Sc2ccccc21,29.3,28.8,28.5,26.5,30.2,26.5,26,25.9,29.3,
C=CCOCn1cnc2c(=O)[nH]c(N)nc21,> 100,> 100,> 100,> 100,> 100,> 100,> 100,> 100,> 100,> 100
Nc1ccc(C2SCC(=O)N2NS(=O)(=O)c2cccc(C(=O)O)c2)cc1 (centres undefined),> 100,> 100,> 100,> 100,> 100,,> 100,> 100,> 100,> 100
NC(CSCSCC(N)C(=O)O)C(=O)O (centres undefined),> 225,> 225,,,> 225,> 225,> 225,> 225,,> 225
C/C(CCN(C)C)=N\OC(=O)c1ccccc1,> 100,> 100,,,> 100,> 100,> 100,> 100,,> 100
COc1ccc(C=O)cc1OS(=O)(=O)C(F)(F)C(F)(F)C(F)(F)C(F)(F)F,> 100,> 82.6,68.8,48.9,> 100,> 100,> 90.2,97.5,> 100,
COC(=O)[C@H](Cc1ccccc1)NC(=O)N(CCNC(=O)OC(C)(C)C)c1ccccc1,> 100,> 100,> 100,> 100,> 100,> 100,> 100,> 100,> 100,> 100
O=C(NC(OCc1ccccc1)(C(F)(F)F)C(F)(F)F)OCc1ccccc1,28.5,28.7,31.3,31,25.8,,31.3,29.4,29.4,28.8
Cn1c(=O)n(C2(C)CSC2)c2ccccc21,> 100,> 100,,,> 100,> 100,> 100,> 100,,> 100
CCOC(=O)c1cc([N+](=O)[O-])c(Sc2ncnc3nc[nH]c23)c([N+](=O)[O-])c1,55.6,15.4,49.1,14.7,28.7,,5.04,30.6,30,36.7
OCC1OC(n2cnc3c(Cl)nc(Nc4ccc(Cl)c(Cl)c4)nc32)CC1O (centres undefined),> 50,28.2,32.3,22.3,22.6,41.8,33.4,23.4,> 50,17.1
CCOC(=O)CC1Nc2ccccc2C12CCc1c([nH]c3ccccc13)C2C(=O)OCC (centres undefined),> 100,> 100,> 100,> 100,> 100,> 100,> 100,> 100,> 100,> 100
C/C(=N\O)c1cccc(Nc2c3ccccc3nc3occc23)c1,58.5,50.6,55.3,5.73,49.4,9.59,36.8,> 100,21.7,52.4
COc1ccc(/C=C/C(=O)CCN2CCN(CCC(=O)/C=C/c3ccc(OC)cc3)CC2)cc1,49.5,28.2,70,24.6,30.1,50,24.1,26,,24.7
CC(C)[Si](Oc1ccc(CC2N(C(=O)c3ccc([N+](=O)[O-])cc3)C(CCc3ccccc3)CC2(C)C=O)cc1)(C(C)C)C(C)C (centres undefined),,> 100,> 100,,> 100,> 100,> 100,,> 100,> 100
CCCCCCc1cc2cc(C(=O)Nc3cccc(F)c3)c(=N)oc2cc1O,13.4,6.44,6.81,6.51,5.06,12.3,13.3,,7.35,11.6
O=C(Nc1ccc(F)cc1)c1cc2c(cc1Cl)Sc1nccn1S2(=O)=O,> 100,> 100,> 100,> 100,,> 100,> 100,> 100,> 100,> 100
COc1ccc(Nc2cc(=O)[nH]c(=O)[nH]2)cc1,> 100,> 100,> 100,> 100,> 100,> 100,,> 100,,> 100
CC(C)(C)CI,73.1,> 100,,,> 100,,> 100,32.4,,37.2
CC(=O)Oc1cc(-c2oc3cc(OC(C)=O)c(C4OC(CO)C(O)C(O)C4O)c(OC(C)=O)c3c(=O)c2O)c(OC(C)=O)cc1O (centres undefined),> 100,> 100,> 100,> 100,> 100,> 100,> 100,> 100,,> 100
O[C@@]12Cc3c([nH]c4ccccc34)[C@@H]3Oc4c(-c5ccccc5)ccc5c4[C@@]31CCN(CC1CC1)[C@@H]2C5,3.53,4,4.62,3.27,3.55,7.03,10.7,,4.71,2.92
Cc1ccc(S(=O)(=O)Nn2c(S)c(C#N)c(-c3ccc(Cl)cc3)c(C#N)c2=O)cc1,> 100,> 100,,86.9,> 100,43.2,> 100,69.7,,> 100
CC(C)CC1N=C(OCc2ccccc2)OC1=O (centres undefined),> 100,> 100,> 100,> 100,> 100,> 100,> 100,> 100,> 100,
